# Assays:
# [1] = tested on: pre-existing seizure proneness (after-discharge duration); assay: Restimulation of previously kindled rats (pre-existing seizure proneness), after-discharge duration; format: in vivo, rat; conditions: AEBSF (50 mgs/ml) injection prior to stimulations
# Excerpt: The control group rats from III, above, were restimulated, with four of the rats of this group receiving a saline injection prior to stimulation and the remaining four rats receiving AEBSF (50 mgs/ml) injection prior to stimulations. […] The AD duration average of the control group was 207±103% of their original average, while the AD duration of the AEBSF injected rats was 26±77% of their original average.
# [2] = tested on: seizure-proneness (after-discharge duration); assay: Kindling by repeated electrical stimulation of hippocampus, after-discharge duration; format: in vivo, rat; conditions: 50 mgs/kg injected once prior to first stimulation; tested 10 days later; control rats ~400%
# Experimental: Rats were divided into two groups: Group I rats were injected with 50 mgs/kg AEBSF and Group II (control) rats were injected with saline. The rats of both groups were then stimulated by direct electrical impulses to the dentate gyrus region of the hippocampus (40 times/5 mins apart)(a paradigm known to promote “kindling”, which can be thought of as an increase in seizure-proneness). The after-discharge duration (AD-duration) was then measured in each group. After a 10 day waiting period, the rats were again stimulated (5 times/20 mins apart)(no drugs were administered). The AD-duration was again measured.
# [3] = biological target: T1, tissue plasminogen activator (tPA) (Homo sapiens, UniProt P00750); assay: Incubation of synthetic substrates with tPA; format: biochemical
# T1 construct: purchased Sigma
# Experimental: 1.5 μg/ml of tissue plasminogen activator (tPA, two chain, Sigma) was incubated at 23 ° C. with 40 μM ASLA- and A-AMC substrates (with or without the inhibitor AEBSF) in a final volume of 1.3 mls aCSF. After one hour of incubation the samples were put in the fluorometer and quantification of proteolytic activity normalized the readings from the A-AMC substrate to 100 (arbitrary units).
# [4] = tested on: endogenous protease(s) found in hippocampal ultrasupernatants; assay: Cleavage of fluorescent AMC substrates by hippocampal ultrasupernatants; format: biochemical, rat; conditions: 100 μM substrate
# Experimental: Hippocampi were rapidly extracted from adult male Sprague-Dawley rats and submerged in ice-cold artificial cerebrospinal fluid (aCSF) which consisted of (in mM): 124 NaCl, 3 KCl, 1.25 KH2PO4, 2.5 MgSO4, 3.4 CaCl2, 26 NaHCO3 and 10 glucose (pH 7.4), homogenized on ice for 1 min in 3 mls of the same buffer and then centrifuged for 5 min. at 1000 g (3° C.). The pellet was discarded and the resulting supernatant was ultracentrifuged at 200,000 g for 20 min. at 3° C. in a TLS-55 rotor (Beckman Instruments). The resulting ultrasupematant fraction was devoid of membrane-bound proteins and therefore represents a soluble protein fraction. This fraction was diluted to 50 μgs/ml in aCSF and incubated at room temperature with 100 μM of arginine linked to a fluorescent amido methyl-coumarin (AMC) substrate (Sigma Chemical Co), or to […] (Enzyme Systems Products; Livermore Cailf.) in the presence of differing concentrations of the serine protease inhibitor AEBSF (4-(2-Aminoethyl)benzenesulfonyl fluoride) (Sigma Chemical Co). Fluorescence was measured in a fluorometer (Sequoia-Turner Corp.) at 430 nm with stimulation at 360 nm. Quantification of proteolytic inhibition was performed by normalization of fluorescence in control tubes (i.e. those without added AEBSF) to 0 percent.
# The serine protease substrate arginine-AMC (A-AMC) and a substrate made up of the CAM serine protease target sequence (arginine-serine-lysine-arginine) (ASLA-AMC) were both cleaved when incubated with soluble protein fractions (i.e. ultrasupernatants) from the hippocampus. This assay was then used to identify drugs and dosages that prevent extracellular CAM cleavage by endogenous proteases. The serine protease inhibitor AEBSF (4-(2-Aminoethyl)-benzenesulfonyl fluoride) inhibited proteolysis of the CAM sequence (ASLA-AMC) and did so to a much greater degree than it blocked the proteolysis of A-AMC. At 250 and 1000 uM A-AMC cleavage was blocked by 15 and 33 percent, respectively, while ASLA-AMC proteolysis was blocked by 44 and 70 percent. FIG. 3 (p≦0.0001).
# [5] = tested on: LTP in hippocampal slices (CA1 field EPSPs); assay: Long-term potentiation in hippocampal slices (theta burst stimulation, field EPSPs); format: cell-based, rat
# Experimental: Brains from male Sprague-Dawley rats (190-225 g) were rapidly removed and placed into ice cold aCSF. Hippocampi were then cut transversely into 400-μm slices and transferred to a recording chamber perfused with aCSF (35° C.), where they were exposed to a humidified gas mixture of 95% oxygen and 5% carbon dioxide. After an hour recovery period, field recordings were made with a glass recording electrode containing 2 M NaCl positioned in the stratum radiatum of CAlb. NAC (Eclectex Enterprises; Irvine Cailf.) was used to record field EPSPs elicited by delivering single stimulation pulses (0.1 ms, 1-15 μA) to one of two bipolar electrodes positioned in Schaffer-commissural projections in CAla and CAlc. Each projection was stimulated every 20 sec with 10 sec interval between each electrode. After establishing a stable baseline (10-20 min), LTP was induced using a theta burst stimulation (TBS) paradigm [J. Larson et al., Brain Res. 368, 347-350 (1986)] in one pathway. After 30 minutes the perfusion media was switched to one containing 250 μM AEBSF. Forty-five minutes later TBS was applied to the non-potentiated pathway. The AEBSF/aCSF mixture was perfused for an additional 10 minutes, after which regular aCSF was added. In another set of slices TBS stimulation was applied during aCSF perfusion, and five minutes after LTP induction 250 μM AEBSF was infused for the remainder of the experiment. Potentiation for all groups was tabulated as the percent increase above initial baseline slopes.
# The magnitude of this effect varied considerably across slices but within slice differences between potentiation elicited before (control) vs. after (experimental) infusion of the drug could not be detected. However, the development of LTP in the minutes following induction was clearly different as is evident in FIG. 5A. […] Mean percent potentiation at this time point was 103±5% for experimental and 134±3% for control pathways (n=6, p=0.005).
# [6] = tested on: CAM75 (75 kDa cell adhesion molecule fragment) generation by serine protease; assay: Incubation of hippocampal homogenates, CAM75 fragment by immunoblot; format: biochemical, rat; conditions: membranes incubated for one hour with 500 μM inhibitor; controls 45±8%; n=3-5, p=0.03
# Experimental: Hippocampi were rapidly extracted from adult male Sprague-Dawley rats and submerged in ice-cold buffer (10 mM Tris-base, 100 mM NaCl; pH 7.4) homogenized on ice for 1 min in 5 mls of the same buffer and then centrifuged for 3 min. at 1000 g (4° C.). The pellet was discarded and the resulting supernatant was immediately incubated at 37° C. with or without EDTA, EGTA, or AEBSF. After incubation, samples were ultracentrifuged (as above) and processed for immunoblotting. Quantification of immunoblots was performed by densitometry with normalization of the immunoreactivity levels at 0 minutes to 100 percent (n=4 or 5; mean±S.E.M. for all time points).
# Similar results are obtained with brain homogenates, where a 65 kDa fragment and CAM75 are produced upon incubation in the presence of EDTA or EGTA (see FIG. 1). As noted, fragments similar in size to CAM75 are generated by cleavage of any of several NCAM relatives by serine-type proteases. That CAM75 also arises from an enzyme of this type was confirmed with the selective inhibitor 4-(2-Aminoethyl)-benzenesulfonyl fluoride (AEBSF); a 12±8% increase in the fragment occurred in membranes incubated for one hour with 500 μM of the inhibitor while a 45±8% increase was obtained in controls (n=3-5; p=0.03).
# NMDA receptors = assay: NMDA receptor stimulation of organotypic hippocampal cultures, CAM75 immunoblot; format: cell-based, rat
# Excerpt: The culture medium (Bahr, et al. “Stable maintenance of glutamate receptors and other synaptic components in long-term hippocampal slices,” Hippocampus 5, 425-439 (1995))(CM) was changed every other day. Slices were maintained in culture for 2-3 weeks and then subjected to a brief NMDA receptor stimulation paradigm (Thibault et al., “Long-lasting physiological effects of bath applied N-methyl-D-aspartate,” Brain Res. 476, 170-173 (1989) and Malenka, “Postsynaptic factors control the duration of synaptic enhancement in area CA 1 of the hippocampus,” Neuron 6, 53-60 (1991)). To activate NMDA receptors the slices were treated with 400 μM NMDA, 2 ; mM CaCl2 (4 mM total) and 1 mM glycine. Control slices were also subjected to this cocktail but were first pretreated for 10 minutes with either 100 μM AP5 (an NMDA antagonist), or with kynurenic acid (2 mM) and MK-801 (100 μM), in CM. After 30 seconds of incubation with the NMDA cocktail, the solutions were removed and CM plus 2 mM AP5 was added to all slices. Tissue was harvested and processed for immunoblotting as described (See Bahr et al., supra). […] Protein concentrations for the non-soluble pellets (i.e. all tissue left after the supernatant was extracted) were determined with a BSA standard curve. […] Quantification of immunobands was determined without knowledge of sample type by densitometry.
# [7] = tested on: CAM75 and Ng-CAM fragment in hippocampus; assay: In vivo detection of NMDA receptor mediated CAM cleavage after kainate seizures; design: species or system rat
# Experimental: Adult male rats were injected systemically with either: 10 mg/kg kainate (pH 7.4), 10 mg/kg kainate and 60 mg/kg ketamine (plus a second injection of 30 mg/kg ketamine one hour later), or saline. Behavioral responses were monitored (all animals in both sets injected with kainate reached seizure stages 4 or 5) and after two hours rats were anaesthetized, their hippocampi rapidly extracted and submerged in ice-cold buffer (10 mM Tris-base, 100 mM NaCl, 2 mM EDTA, and 2 mM EGTA; pH 7.4), homogenized on ice for 1 min in 5 mls of the same buffer, and then centrifuged for 3 min. at 1000 g (4° C.). The pellet was discarded and fractions of the resulting supernatants were immediately ultracentrifuged. Protein normalization and immunoblotting techniques were completed as described above. Quantification of CAM75 and the Ng-CAM fragment involved normalization of the immunoreactivity levels observed in saline injected rats to 100 percent (n=7-11; mean±S.E.M. for all groups).
# Evidence for seizure induced extracellular cleavage at the consensus serine protease site was also obtained for a second adhesion molecule. Specifically, concentrations of an 80 kDa polypeptide detected by antibodies against Ng-CAM were increased by 603±140% (n=4, p=0.023) in ultrasupematant fractions from kainate injected rats.
# T1 sequence (P00750 311-562 limits assumed, species assumed): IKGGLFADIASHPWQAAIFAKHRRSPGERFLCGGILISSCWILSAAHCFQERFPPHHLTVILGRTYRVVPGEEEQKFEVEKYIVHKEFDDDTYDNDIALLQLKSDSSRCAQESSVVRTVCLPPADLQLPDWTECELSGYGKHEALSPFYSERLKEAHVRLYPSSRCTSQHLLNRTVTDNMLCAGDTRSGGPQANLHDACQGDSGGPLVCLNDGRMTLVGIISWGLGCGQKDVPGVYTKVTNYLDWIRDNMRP
# T1 sequence (P00750 36-310 partner limits assumed, species assumed): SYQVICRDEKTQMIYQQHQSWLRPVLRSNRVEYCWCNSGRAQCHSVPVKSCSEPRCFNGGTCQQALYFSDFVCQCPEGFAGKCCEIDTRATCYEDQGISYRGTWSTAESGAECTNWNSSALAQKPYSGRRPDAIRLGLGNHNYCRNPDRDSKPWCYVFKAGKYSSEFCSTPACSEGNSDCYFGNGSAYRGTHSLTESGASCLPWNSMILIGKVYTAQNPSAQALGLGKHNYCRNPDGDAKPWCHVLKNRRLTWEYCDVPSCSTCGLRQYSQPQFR
structure (smiles),measurement,setting,value
"NCCc1ccc(S(=O)(=O)F)cc1 [AEBSF, 4-(2-Aminoethyl)-benzenesulfonyl fluoride]",rats with no after discharges (no seizure-like activity),[1]; four rats,Two out of the four
same,AD duration as percent of original average,"[1]; tested 10 days after, saline group 207±103%",26±77%
same,increase in AD-duration during the second testing period,[2],no increase in AD-duration
same,proteolytic activity of tPA blocked,[3],potently blocked
same,A-AMC cleavage blocked,[4]; 250 uM AEBSF,15%
same,ASLA-AMC proteolysis blocked,[4]; 250 uM AEBSF,44%
same,A-AMC cleavage blocked,[4]; 1000 uM AEBSF,33%
same,ASLA-AMC proteolysis blocked,[4]; 1000 uM AEBSF,70%
same,Mean percent potentiation,"[5]; 250 μM for 45 min before TBS, about one hour post-induction, control pathways 134±3%, n=6, p=0.005",103±5%
same,effect on already established LTP (potentiation over the subsequent hour),[5]; 250 μM infused five or thirty minutes after induction,no effects on potentiation
same,"effect on slope, amplitude, or waveform of monosynaptic field EPSPs","[5]; 250 μM infused for forty-five minutes, before TBS",no significant effect
same,increase in the CAM75 fragment,[6],12±8%
CN[C@H](CC(=O)O)C(=O)O [NMDA],concentration of CAM75 in soluble fractions versus control tissue,"NMDA receptors; 30 seconds after a 30 second infusion of NMDA, n=12, p=0.0003",approximately twice
same,amount of CAM75 greater than in slices exposed to NMDA and an antagonistic drug,"NMDA receptors; homogenates after 30 second infusion of NMDA, mean±sd, n=9, p<0.001",77±41%
C=C(C)[C@H]1CN[C@H](C(=O)O)[C@H]1CC(=O)O [kainic acid],CAM75 increase in the hippocampus,"[7]; single injection 10 mg/kg, about 45 minutes of periodic seizures, saline = 100 percent, n=11, p=0.0002",598±85%
same,increase of 80 kDa polypeptide detected by antibodies against Ng-CAM,"[7]; ultrasupernatant fractions from kainate injected rats, n=4, p=0.023",603±140%
CNC1(c2ccccc2Cl)CCCCC1=O (centres unmarked) [ketamine],effect on kainate-induced CAM75 increase,"[7]; 60 mg/kg plus 30 mg/kg one hour later with 10 mg/kg kainate, n=7, p=0.03",substantially reduced this effect
